Experimental data reported in publication PMC9503009, “Determining Ligand and Ion-Induced Conformational Changes in Serotonin Transporter with Its Fluorescent Substrates” (International Journal of Molecular Sciences, 2022).
Read-outs that look alike come from different tables or passages of the source.

Columns and labels:
Type in all cases: cell-based
SERT C109A = molecular target: T1, SERT C109A (Rattus norvegicus, UniProt P31652, C109A); assay: MTSET inhibition of APP+ uptake in live cells (extracellular pathway cysteine accessibility)
T1 construct: expressed in transfected cells
Experimental: Figure 3 Reactivity of the extracellular cysteine mutants with MTSET. (A) MTSET concentration-dependent inhibition of APP^+ uptake. The cells stably expressing C109A, Y107C/C109C, or S404C/C109A were incubated for 15 min with indicated concentrations of MTSET. The MTSET concentration giving half-maximal inhibition of APP^+ accumulation in the cells was used to calculate inactivation rate constants as plotted in (B). In this experiment, half-maximal MTSET concentrations were […] for C109A, 0.011 ± 0.006 mM for Y107C/C109A, and 0.0025 ± 0.0008 mM for S404C/C109A, respectively. Representative images of APP^+ uptake by C109A, Y107C/C109A, or S404C/C109A under various MTSET concentrations were shown in Supplemental Figure S1. The experiment was repeated twice with similar results. (B) Rate constants of MTSET inhibition of APP^+ uptake. At the half-maximal concentration, the half-time is the assay time (15 min) and the first-order rate constant is 7.7 × 10^−4 s^−1. […]
Accessibility of the cysteine residues in the extracellular pathway was measured by reactivity of Y107C/C109A and S404C/C109A mutants with MTSET. […] The extent of APP^+ accumulated in the cells was determined by confocal imaging analysis in the live cells. […] The MTSET concentration causing half-maximal inactivation was determined and used to calculate the rate constant for cysteine modification, as described previously.

SERT S277C/X5C = molecular target: T2, SERT S277C/X5C (Rattus norvegicus, UniProt P31652, C109A/C15A/C21A/C357I/C622A/S277C); assay: MTS reagent inhibition of ASP+ binding in digitonin-permeabilized cells (cytoplasmic pathway cysteine accessibility); details: S277C/X5C, 25 μg/mL digitonin
T2 construct: expressed in transfected cells
Experimental: After 3 × rapid washing with KRH buffer, APP^+ or ASP^+ accumulation was measured as described under “Materials and Methods”. […] These representative images were parallelly acquired from one experiment. […] After 3 × washing, ASP^+ binding to the cell membrane was measured as described under “Materials and Methods”. […] (D) The effects of MTSET on ASP^+ binding of S277C/X5C and X5C. […] After 3 × rapid washing, ASP^+ binding was measured as described under “Materials and Methods”.
After washing to remove excess MTSEA and ligands, ASP^+ binding was measured as described under “Materials and Methods”. […] The IC50 values of MTSEA inhibition of ASP^+ binding were converted to rate constants.
The cells stably expressing Y107C/C109A were treated at 22 °C for 15 min with indicated concentrations of MTSET in the absence or presence of 10 μM vilazodone. After washing to remove excess MTSET and vilazodone, APP^+ uptake was measured as described under “Materials and Methods”. […] The IC50 values of MTSET inhibition were used to calculate rate constants as described under “Materials and Method”. Error bars represent SEM from three experiments. […] After washing to remove excess MTSEA and vilazodone, ASP^+ binding was measured as described under “Materials and Methods”. […] The IC50 values of MTSEA inhibition of ASP^+ binding were converted to rate constants. […]
For cytoplasmic pathway accessibility, measurements were performed with the cells stably expressing S277C/X5C. […] The cells, then, were washed free of unreacted MTSEA and ligands, ASP^+ binding was measured by adding 500 μL KRH buffer containing 10 μM ASP^+ and incubating at 22 °C for 5 min. Excess ASP^+ was removed by 3 × rapid washing with KRH buffer and ASP^+ fluorescence retained in the cell membrane was measured by confocal imaging analysis in the permeabilized cells. […] The MTSEA IC50 value was determined and used to calculate the rate constant for S277C/X5C modification.

SERT S404C/C109A = molecular target: T3, SERT S404C/C109A (Rattus norvegicus, UniProt P31652, C109A/S404C); assay: MTSET inhibition of APP+ uptake in live cells (extracellular pathway cysteine accessibility); details: for IC50: S404C/C109A
T3 construct: expressed in transfected cells
Experimental: (§1) Figure 3 Reactivity of the extracellular cysteine mutants with MTSET. (A) MTSET concentration-dependent inhibition of APP^+ uptake. The cells stably expressing C109A, Y107C/C109C, or S404C/C109A were incubated for 15 min with indicated concentrations of MTSET. The MTSET concentration giving half-maximal inhibition of APP^+ accumulation in the cells was used to calculate inactivation rate constants as plotted in (B). […] Representative images of APP^+ uptake by C109A, Y107C/C109A, or S404C/C109A under various MTSET concentrations were shown in Supplemental Figure S1. […] (B) Rate constants of MTSET inhibition of APP^+ uptake. At the half-maximal concentration, the half-time is the assay time (15 min) and the first-order rate constant is 7.7 × 10^−4 s^−1. This rate constant was divided by the half maximal MTSET concentration from (A) to obtain the pseudo first-order modification rate constant. Error bars represent SEM of three experiments.
(§2) The cells stably expressing Y107C/C109A or S404C/C109A were preincubated with indicated ligands and MTSET at a concentration of 0.01 mM for Y107C/C109A or 0.002 mM for S404C/C109A at 22 °C for 15 min, respectively. At the end of this incubation, cells were washed free of MTSET and ligands into KRH buffer containing NaCl and APP^+. APP^+ uptake was measured as described under “Materials and Methods”. Error bars represent SEM from three experiments. Asterisks and hashtags indicate statistically significant changes (p < 0.05) in the accumulated APP^+ fluorescence compared with the corresponding control (MTSET alone).
Accessibility of the cysteine residues in the extracellular pathway was measured by reactivity of Y107C/C109A and S404C/C109A mutants with MTSET. The cells stably expressing Y107C/C109A or S404C/C109A were incubated with MTSET over a range of concentrations in HEPES buffer containing indicated ligands or ions at 22 °C for 15 min. After excess MTSET and ligands were removed by rapid 3 × washing with the same buffer, the cells were then incubated with APP^+ at a final concentration of 2 μM in KRH buffer at 22 °C for another 5 min. The extent of APP^+ accumulated in the cells was determined by confocal imaging analysis in the live cells. To measure the effects of antidepressants, substrate 5-HT, or other ligands such as 5-HTP or tryptophan, where added, was present at 10 μM. To measure the effects of ions, 150 mM […] (NMDG) gluconate, and NMDG chloride, sodium isethionate, or NaCl was used as indicated. These measurements of reactivity depend on the ability of MTSET to inactivate APP^+ transport activity by an allosteric mechanism. The MTSET concentration causing half-maximal inactivation was determined and used to calculate the rate constant for cysteine modification, as described previously.

SERT Y107C/C109A = molecular target: T4, SERT Y107C/C109A (Rattus norvegicus, UniProt P31652, C109A/Y107C); assay: as above; details: Y107C/C109A
T4 construct: expressed in transfected cells
Experimental: as §1
(A) MTSET concentration-dependent inhibition of APP^+ uptake. […] After washing to remove excess MTSET and ligands, APP^+ uptake was measured as described under “Materials and Methods”. […] (B) Rate constants of MTSET inhibition of APP^+ uptake. The IC50 values of MTSET inhibition were used to calculate rate constants as described under “Materials and Methods”. Error bars represent SEM from three experiments.
as §2
The cells stably expressing Y107C/C109A were treated at 22 °C for 15 min with indicated concentrations of MTSET in the absence or presence of 10 μM vilazodone. After washing to remove excess MTSET and vilazodone, APP^+ uptake was measured as described under “Materials and Methods”. […] The IC50 values of MTSET inhibition were used to calculate rate constants as described under “Materials and Method”. Error bars represent SEM from three experiments. […] After washing to remove excess MTSEA and vilazodone, ASP^+ binding was measured as described under “Materials and Methods”. […] The IC50 values of MTSEA inhibition of ASP^+ binding were converted to rate constants.

[1] = 15 min incubation with MTSET, read-out: half-maximal MTSET concentration for inhibition of APP+ accumulation
[2] = constant concentration used in simplified assay, read-out: MTSET IC50 value (APP+ uptake inhibition)

For C[N+](C)(C)CCSS(C)(=O)=O.[Br-] [MTSET, 2-(Trimethylammonium) ethyl methanethiosulfonate bromide], the IC50 (SERT C109A; C109A, 15 min incubation with MTSET, read-out: half-maximal MTSET concentration for inhibition of APP+ accumulation) was over 1000 µM, the “effect on transport activity (APP+ uptake)” value (SERT C109A; background construct C109A, MTSET 0.1 μM to 1 mM) was “little effect” and the “accessibility of Cys277 to MTSET” value (SERT S277C/X5C) was “not accessible”. The IC50 (SERT S404C/C109A; [1]) was 2.5 ± 0.8 µM, the IC50 (SERT S404C/C109A; [2]) was 2 µM and the “reactivity with MTSET of S404C/C109A relative to Y107C/C109A (faster by)” value (SERT S404C/C109A; pseudo first-order rate constants) was 4-5 fold. It also gave an IC50 (SERT Y107C/C109A; [1]) of 11 ± 6 µM and an IC50 (SERT Y107C/C109A; [2]) of 10 µM.
